Earlier results in patent publication US7393522B2, “Physiologically balanced, ionized, acidic solution and methodology for use in wound healing” (NovaBay Pharmaceuticals, Inc., priority 2000, dated 2008).

Settings: pH 5.0 to pH 8.0

OCl [HOCl, hypochlorous acid]
pH of maximum decomposition rate: 6.89
